Measured values published in patent US6313095A, “Antiherpes tetrapeptide derivatives having a substituted aspartic acid side chain” (Boehringer Ingelheim (Canada), Ltd., priority 1989, dated 2001).
Where a SMILES comes first, the peptide text is derived from it. [ ]: non-standard residue; d: D form. The star is where a group is joined. ξ: configuration not given here. Asp(3,3-(CH2)4) = N[C@H](C(=O)O)C1(C(=O)O)CCCC1; Gly(1-COOH-cBu) = N[C@H](C(=O)O)C1(C(=O)O)CCC1; cPrCO(2,2,3,3-Me4) = CC1(C)C(C(=O)*)C1(C)C; X1 = CC1CCC(C)C(C(=O)*)C1C(=O)OCCc1ccccc1; Benzoyl(2-Ph) = O=C(c1ccccc1-c1ccccc1)*; ξAsp(3,3-Me2) = CC(C)(C(=O)O)C(N)C(=O)O; X3 = O=C(CCc1ccccc1)C1CCCCC1C(=O)*; Pentanoyl(4-Me) = CC(C)CCC(=O)*; X5 = CC(C)C(CCCCc1ccccc1)C(=O)*; Butanoyl(2-Et) = CCC(CC)C(=O)*; O(2S-octyl) = CCCCCC[C@H](C)O*; Tle = CC(C)(C)[C@H](N)C(=O)O; Leu(ol) = CC(C)C[C@H](N)CO; Hiv = CC(C)[C@H](O)C(=O)O; Isovaleryl = CC(C)CC(=O)*; Morpholide = C1CN(*)CCO1; Pyrrolidide = C1CCN(*)C1; X4 = CC1CCCC(C)C1C(=O)*; X6 = CCCCCCCCN(C)*; Bn = c1ccc(C*)cc1; NEt2 = CCN(CC)*

Biological target: T1, HSV-1 ribonucleotide reductase (Human herpesvirus 1, UniProt P08543)
T1 construct: HSV-1 ribonucleotide reductase (partially purified) was obtained from quiescent BHK-21/C13 cells infected with strain F HSV-1 virus; endogenous in cells; host or cells: quiescent BHK-21/C13 (hamster) cells infected with HSV-1 strain F; partially purified enzyme preparation
T1 sequence (P08543 whole entry): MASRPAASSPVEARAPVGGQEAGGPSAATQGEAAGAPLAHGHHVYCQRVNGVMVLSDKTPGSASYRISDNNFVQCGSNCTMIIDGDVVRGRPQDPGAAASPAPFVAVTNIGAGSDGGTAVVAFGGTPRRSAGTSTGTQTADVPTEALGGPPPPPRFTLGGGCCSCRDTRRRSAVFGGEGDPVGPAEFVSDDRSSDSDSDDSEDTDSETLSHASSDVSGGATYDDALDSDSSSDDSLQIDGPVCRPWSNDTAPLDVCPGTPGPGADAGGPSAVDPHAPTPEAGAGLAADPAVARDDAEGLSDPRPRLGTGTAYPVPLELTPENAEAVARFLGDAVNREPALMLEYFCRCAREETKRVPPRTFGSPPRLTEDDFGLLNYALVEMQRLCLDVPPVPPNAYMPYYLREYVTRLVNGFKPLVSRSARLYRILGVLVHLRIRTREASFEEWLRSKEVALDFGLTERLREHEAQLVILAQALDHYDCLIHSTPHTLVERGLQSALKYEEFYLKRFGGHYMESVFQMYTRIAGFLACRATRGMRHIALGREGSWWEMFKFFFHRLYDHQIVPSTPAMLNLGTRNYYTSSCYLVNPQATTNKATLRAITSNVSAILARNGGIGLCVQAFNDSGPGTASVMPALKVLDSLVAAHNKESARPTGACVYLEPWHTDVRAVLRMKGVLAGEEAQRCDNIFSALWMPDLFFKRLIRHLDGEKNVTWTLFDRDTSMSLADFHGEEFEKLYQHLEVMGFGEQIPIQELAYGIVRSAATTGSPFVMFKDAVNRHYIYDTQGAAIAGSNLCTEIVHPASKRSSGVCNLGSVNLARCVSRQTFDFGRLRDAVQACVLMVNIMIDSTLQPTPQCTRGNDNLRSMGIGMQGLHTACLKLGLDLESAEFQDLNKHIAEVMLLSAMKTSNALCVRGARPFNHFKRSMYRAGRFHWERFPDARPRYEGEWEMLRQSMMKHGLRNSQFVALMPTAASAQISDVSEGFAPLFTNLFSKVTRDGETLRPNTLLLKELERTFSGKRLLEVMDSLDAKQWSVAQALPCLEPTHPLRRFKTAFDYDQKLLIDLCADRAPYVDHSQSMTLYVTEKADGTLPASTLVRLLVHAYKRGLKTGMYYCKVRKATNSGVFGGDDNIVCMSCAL
Assay: Inhibition of Herpes Simplex Virus (HSV, Type 1) Ribonucleotide Reductase
Type: biochemical, herpes simplex virus type 1 (strain F)
Conditions: mean of four assays
Description: Inhibition of Herpes Simplex Virus (HSV, Type 1) Ribonucleotide Reductase
HSV-1 ribonucleotide reductase (partially purified) was obtained from quiescent BHK-21/C13 cells infected with strain F HSV-1 virus at 10 plaque forming units/cell as described by E. A. Cohen et al., J. Gen. Virol., 66, 733 (1985).
b) Assay and Results for Exemplified Peptides
By following the procedure described by P. Gaudreau et al., J. Biol, Chem., 262, 12413 (1987), the assay results listed in the following table were obtained. The assay result for each peptide is expressed as the concentration of the peptide producing 50% of the maximal inhibition (IC50) of enzyme activity. The number of units of the enzyme preparation used in each assay was constant, based on the specific activity of the enzyme preparation. The results are relative to the activity obtained in control experiments without peptide and represent the mean of four assays that varied less than 10% with each other.

[1] = concentration producing 50% of the maximal inhibition of enzyme activity, partially purified enzyme
[2] = separated diastereoisomer, first eluted on HPLC (footnotes 1, 3)
[3] = separated diastereoisomer, second eluted on HPLC (footnotes 1, 3)

SMILES | IC50 [1] [nM] | further results
CC[C@H](C)[C@H](NC(=O)c1ccccc1-c1ccccc1)C(=O)N[C@@H](CC(=O)N1CCCC1)C(=O)N[C@@H](CC(=O)O)C(=O)N[C@@H](CC(C)C)c1nnn[nH]1 [2-Biphenylcarbonyl-Ile-Asp(pyrrolidino)-Asp-NHCH--[CH2 CH(CH3)2-5-1H-tetrazole] | 13800 | –
CC[C@H](C)[C@H](NC(=O)c1ccccc1-c1ccccc1)C(=O)N[C@@H](CC(=O)N1CCOCC1)C(=O)N[C@@H](CC(=O)O)C(=O)N[C@@H](CC(C)C)C(=O)O [2-Biphenylylcarbonyl-Ile-Asp(morpholino)-Asp-Leu-OH] ({Benzoyl(2-Ph)}-ID(Morpholide)DL-OH) | 7200 | –
CC[C@H](C)[C@H](NC(=O)c1ccccc1-c1ccccc1)C(=O)N[C@@H](CC(=O)N1CCCC1)C(=O)N[C@@H](CC(=O)O)C(=O)N[C@@H](CC(C)C)C(=O)O [2-Biphenylylcarbonyl-Ile-Asp(pyrrolidino)-Asp-Leu-OH] ({Benzoyl(2-Ph)}-ID(Pyrrolidide)DL-OH) | 3600 | –
CC[C@H](C)[C@H](NC(=O)C1C(C)(C)C1(C)C)C(=O)N[C@@H](CC(=O)N1CCCC1)C(=O)N[C@@H](CC(=O)O)C(=O)N[C@@H](CC(C)C)C(=O)O [(2,2,3,3-Tetramethylcyclopropyl)carbonyl-Ile-Asp(pyrrolidino)-Asp-Leu-OH] ({cPrCO(2,2,3,3-Me4)}-ID(Pyrrolidide)DL-OH) | 1400 | –
CC[C@H](C)[C@H](NC(=O)C1C(C)CCCC1C)C(=O)N[C@@H](CC(=O)N1CCCC1)C(=O)N[C@@H](CC(=O)O)C(=O)N[C@@H](CC(C)C)C(=O)O (stereo partly drawn) [(2,6-Dimethylcyclohexyl)carbonyl-Ile-Asp(pyrrolidino)-Asp-Leu-OH] (X4-ID(Pyrrolidide)DL-OH) | 2100 | –
CCC(CC)C(=O)N[C@H](C(=O)N[C@@H](CC(=O)N1CCCC1)C(=O)N[C@H](C(=O)N[C@H](CO)CC(C)C)C1(C(=O)O)CCCC1)C(C)(C)C [(C2 H3)2 CHCO-Tbg-Asp(pyrrolidino)-Asp(cyPn)-(L-leucinol)] ({Butanoyl(2-Et)}-[Tle]D(Pyrrolidide)[Asp(3,3-(CH2)4)][Leu(ol)]) | 500 | –
CCC(CC)C(=O)N[C@H](C(=O)N[C@@H](CC(=O)N1CCCC1)C(=O)N[C@@H](CC(=O)O)C(=O)NCCC(C)(C)C)C1CCCC1 [(C2 H5)2 CHCO-Cpg-Asp(pyrrolidino)-Asp-NHCH2 CH2 C(CH)3] | 35000 | –
CCC(CC)C(=O)N[C@@H](Cc1cccs1)C(=O)N[C@@H](CC(=O)N1CCCC1)C(=O)N[C@@H](CC(=O)O)C(=O)NCCC(C)(C)C [(C2 H5)2 CHCO-NHCH(2-thienylmethyl)CO-Asp(pyrrolidino)-Asp-NHCH2 CH2 C(CH3)3] | 60000 | –
CCC(CC)C(=O)N[C@H](C(=O)N[C@@H](CC(=O)N1CCCC1)C(=O)N[C@@H](CC(=O)O)C(=O)NCCC(C)(C)C)c1ccccc1 [(C2 H5)2 CHCO-Phg-Asp(pyrrolidino)-Asp-NHCH2 CH2 C(CH3)3] | 40000 | –
CCCCCC[C@H](C)OC(=O)C[C@H](NC(=O)[C@@H](NC(=O)C(CC)CC)C(C)(C)C)C(=O)N[C@H](C(=O)N[C@@H](CC(C)C)C(=O)O)C1(C(=O)O)CCC1 [(C2 H5)2 CHCO-Tbg-Asp(1-methylheptyloxy)-Asp(cyBu)-Leu-OH] ({Butanoyl(2-Et)}-[Tle]D(O(2S-octyl))[Gly(1-COOH-cBu)]L-OH) | 500 | –
CCCCCC[C@H](C)OC(=O)C[C@H](NC(=O)[C@@H](NC(=O)C(CC)CC)C(C)(C)C)C(=O)N[C@H](C(=O)N[C@@H](CC(C)C)C(=O)O)C1(C(=O)O)CCCC1 [(C2 H5)2 CHCO-Tbg-Asp(1-methylheptyloxy)-Asp(cyPn)-Leu-OH] ({Butanoyl(2-Et)}-[Tle]D(O(2S-octyl))[Asp(3,3-(CH2)4)]L-OH) | 370 | –
CCCCCCCCN(C)C(=O)C[C@H](NC(=O)[C@@H](NC(=O)C(CC)CC)C(C)(C)C)C(=O)N[C@H](C(=O)N[C@@H](CC(C)C)C(=O)O)C1(C(=O)O)CCC1 [(C2 H5)2 CHCO-Tbg-Asp(N-Me-N-octyl)-Asp(cyBu)-Leu-OH] ({Butanoyl(2-Et)}-[Tle]D(X6)[Gly(1-COOH-cBu)]L-OH) | 200 | –
CCCCC(C(=O)O)[C@H](NC(=O)[C@H](CC(=O)N1CCCC1)NC(=O)[C@@H](NC(=O)C(CC)CC)C(C)(C)C)C(=O)N[C@@H](CC(C)C)C(=O)O (stereo partly shown) [(C2 H5)2 CHCO-Tbg-Asp(pyrrolidino)-Asp(Bu)-Leu-OH] | 2000 | –
CCC(CC)C(=O)N[C@H](C(=O)N[C@@H](CC(=O)N1CCCC1)C(=O)N[C@H](C(=O)N[C@@H](CC(C)C)C(=O)O)C(CC)(CC)C(=O)O)C(C)(C)C [(C2 H5)2 CHCO-Tbg-Asp(pyrrolidino)-Asp(diEt)-Leu-OH] | 100 | –
CCC(CC)C(=O)N[C@H](C(=O)N[C@@H](CC(=O)N1CCCC1)C(=O)NC(C(=O)N[C@@H](CC(C)C)C(=O)O)C(C)(C)C(=O)O)C(C)(C)C (stereo partly drawn) [(C2 H5)2 CHCO-Tbg-Asp(pyrrolidino)-Asp(diMe)-Leu-OH] ({Butanoyl(2-Et)}-[Tle]D(Pyrrolidide)[ξAsp(3,3-Me2)]L-OH) | – | IC50 (separated diastereoisomer, first value listed (footnote 5, order not stated)): 140 nM; IC50 (separated diastereoisomer, second value listed (footnote 5, order not stated)): 9100 nM
CCC(CC)C(=O)N[C@H](C(=O)N[C@@H](CC(=O)N1CCCC1)C(=O)N[C@@H](CC(=O)O)C(=O)N[C@H](CO)[C@@H](C)CC)C(C)(C)C [(C2 H5)2 CHCO-Tbg-Asp(pyrrolidino)-Asp-(L-isoleucinol)] | 11000 | –
CCC(CC)C(=O)N[C@H](C(=O)N[C@@H](CC(=O)N1CCCC1)C(=O)N[C@@H](CC(=O)O)C(=O)NCCC(C)(C)C)C(C)(C)C [(C2 H5)2 CHCO-Tbg-Asp(pyrrolidino)-Asp-NHCH2 CH2 C(CH)3] | 18000 | –
CCC(CC)C(=O)N[C@H](C(=O)N[C@@H](CC(=O)N1CCCC1)C(=O)N[C@@H](CC(=O)O)C(=S)N[C@@H](CC(C)C)C(=O)O)C(C)(C)C [(C2 H5)2 CHCO-Tbg-Asp(pyrrolidino)-Asp.PSI.[CSNH]Leu-OH] | 1900 | –
CCC(CC)C(=O)N[C@H](C(=O)N[C@@H](CC(=O)N1CCCC1)C(=O)N[C@@H](CC(=O)O)C(=O)N[C@@H](CC(C)C)C(=O)O)[C@@H](C)OCc1ccccc1 [(C2 H5)2 CHCO-Thr(OBz)-Asp(pyrrolidino)-Asp-Leu-OH] ({Butanoyl(2-Et)}-T(Bn)D(Pyrrolidide)DL-OH) | 3400 | –
CCC(CC)C(=O)N[C@H](C(=O)N[C@@H](CC(=O)N1CCCC1)C(=O)N[C@@H](CC(=O)O)C(=O)NCCC(C)(C)C)[C@@H](C)OC [(C2 H5)2 CHCO-Thr(OMe)-Asp(pyrrolidino)-Asp-NHCH2 CH2 C(CH3)3] | 75000 | –
CCC(CC)C(=O)N[C@H](C(=O)N[C@@H](CC(=O)N1CCCC1)C(=O)N[C@@H](CC(=O)O)C(=O)N[C@H](CO)CC1CCCCC1)C(C)(C)C [(C2 H5)CHCO-Tbg-Asp(pyrrolidino)-Asp-NH--CH(cyclohexylmethyl)CH2 OH] | 10500 | –
CCCCCC[C@H](C)OC(=O)C[C@H](NC(=O)[C@@H](NC(=O)CCC(C)C)[C@@H](C)CC)C(=O)N[C@@H](CC(=O)O)C(=O)N[C@@H](CC(C)C)C(=O)O [(CH3)2 CHCH2 CH2 CO-Ile-Asp(1-methylheptyloxy)-Asp-Leu-OH] ({Pentanoyl(4-Me)}-ID(O(2S-octyl))DL-OH) | > 10000 | –
CC[C@H](C)[C@H](NC(=O)CCC(C)C)C(=O)N[C@@H](CC(=O)N1CCCC1)C(=O)N[C@@H](CC(=O)O)C(=O)N[C@@H](CC(C)C)C(=O)O [(CH3)2 CHCH2 CH2 CO-Ile-Asp(pyrrolidino)-Asp-Leu-OH] ({Pentanoyl(4-Me)}-ID(Pyrrolidide)DL-OH) | 3000 | –
CC[C@H](C)[C@H](NC(=O)CC(C)C)C(=O)N[C@@H](CC(=O)N1CCCC1)C(=O)N[C@@H](CC(=O)O)C(=O)N[C@@H](CC(C)C)C(=O)O [(CH3)2 CHCH2 CO-Ile-Asp(pyrrolidino)-Asp-Leu-OH] (Isovaleryl-ID(Pyrrolidide)DL-OH) | 2700 | –
CC(C)C[C@H](NC(=O)[C@H](CC(=O)O)NC(=O)[C@H](CC(=O)N1CCCC1)NC(=O)[C@@H](NC(=O)[C@@H](O)C(C)C)C(C)(C)C)C(=O)O [[(S)-(CH3)2 CHCH(OH)CO]-Tbg-Asp(pyrrolidino)-Asp-Leu-OH] (H-[Hiv][Tle]D(Pyrrolidide)DL-OH) | 2800 | –
CC[C@H](C)[C@H](NC(=O)C1C(C)CCC(C)C1C(=O)OCCc1ccccc1)C(=O)N[C@@H](CC(=O)N1CCCC1)C(=O)N[C@@H](CC(=O)O)C(=O)N[C@@H](CC(C)C)C(=O)O (stereo partly drawn) [[(d,1)1α,2α,3β,6β-3,6-Dimethyl-2-(phenylethoxycarbonyl)cyclohexanecarbonyl]-Ile-Asp(pyrrolidino)-Asp-Leu-OH] (X1-ID(Pyrrolidide)DL-OH) | – | IC50 [2]: 500 nM; IC50 [3]: 2300 nM
CC[C@H](C)[C@H](NC(=O)C1CCCCC1C(=O)CCc1ccccc1)C(=O)N[C@@H](CC(=O)N(CC)CC)C(=O)N[C@@H](CC(=O)O)C(=O)N[C@@H](CC(C)C)C(=O)O (stereo partly drawn) [[(d,1)-2-(3-Phenyl-1-oxopropyl)cyclohexanecarbonyl]-Ile-Asp(NEt2)-Asp-Leu-OH] (X3-ID(NEt2)DL-OH) | – | IC50 [2]: 1400 nM; IC50 [3]: 34000 nM
CC[C@H](C)[C@H](NC(=O)C(CCCCc1ccccc1)C(C)C)C(=O)N[C@@H](CC(=O)N1CCCC1)C(=O)N[C@@H](CC(=O)O)C(=O)N[C@@H](CC(C)C)C(=O)O (stereo partly drawn) [[d,1-Ph(CH2)4 -CH[CH(CH3)2 ]CO]-Ile-Asp(pyrrolidino)-Asp-Leu-OH] (X5-ID(Pyrrolidide)DL-OH) | 1300 | –
